From ChEMBL document CHEMBL5634091, “Cantharidin analogue alleviates dextran sulfate sodium-induced colitis in mice by inhibiting the activation of NF-κB signaling” (Eur J Med Chem, 2023)
Active and inactive are the calls of the source. No cut-off for these calls is given here.

Tests used:
[1] = Toxicity in Kunming mouse assessed as number of mouse survived at 40 mg/kg, po measured for 15 days; format: organism-based; details: in vivo, 360 h, time 15 day
[2] = Cytotoxicity against TNF-alpha induced HEK293T cells assessed as inhibition of cell growth preincubated for 24 hrs followed by TNFalpha stimulation and measured after 4 hrs by SRB assay; format: toxicity, cell-based, HEK-293T; details: human, HEK293T cells induced with TNF-alpha; time 28 hrs
Mus musculus [3] = species on record: Mus musculus; test: Anti-inflammatory activity in C57BL/6 mouse model of DSS-induced acute ulcerative colitis; format: functional, organism-based
[4] = Selectivity index, ratio of CC50 for cytotoxicity against LPS/IFNgamma induced mouse RAW264.7 cells to IC50 for antiinflammatory activity in mouse RAW264.7 cells assessed as inhibition in LPS/IFNgamma-induced NO production; format: toxicity, cell-based; details: RAW264.7 cells induced with LPS/IFNgamma, read-out: Ratio IC50
[5] = Inhibition of TNF-alpha induced NF-kappaB activation in HEK293T cells preincubated for 4 hrs and followed by TNF-alpha stimulation and measured after 4 hrs by dual-luciferase reporter assay; format: cell-based; details: Homo sapiens, HEK-293T
[6] = Toxicity in po dosed Kunming mouse assessed as maximum tolerated dose; format: organism-based; details: in vivo
[7] = Toxicity in Kunming mouse assessed as number of mouse survived at 57 mg/kg, po measured for 15 days; format: organism-based; details: in vivo, 360 h, time 15 day
[8] = Toxicity in Kunming mouse assessed as number of mouse survived at 117 mg/kg, po measured for 15 days; format: organism-based; details: in vivo, 360 h, time 15 day
RAW264.7 [9] = test: Antiinflammatory activity in mouse RAW264.7 cells assessed as inhibition in LPS/IFNgamma-induced NO production preincubated for 2 hrs followed by LPS/IFNgamma stimulation and measured after 24 hrs by Griess reagent based assay; format: functional, cell-based
[10] = Toxicity in Kunming mouse assessed as increase in body weight at 40 mg/kg, po measured for 15 days (reference value: 12.38%); format: organism-based; details: in vivo, 360 h, time 15 day
[11] = Toxicity in Kunming mouse assessed as number of mouse survived at 82 mg/kg, po measured for 15 days; format: organism-based; details: in vivo, 360 h, time 15 day
[12] = Toxicity in Kunming mouse assessed as effect on kidney by measuring systemic edema at 117 mg/kg, po measured for 15 days; format: organism-based; details: in vivo, 360 h, time 15 day
[13] = Selectivity index, ratio of CC50 for cytotoxicity against TNF-alpha induced HEK293T cells to IC50 for inhibition of TNF-alpha induced NF-kappaB activation in HEK293T cells; format: toxicity, cell-based; details: human, HEK293T cells induced with TNF-alpha; read-out: Ratio IC50
[14] = Cytotoxicity against LPS/IFNgamma induced mouse RAW264.7 cells assessed as inhibition of cell growth preincubated for 24 hrs followed by LPS/IFNgamma stimulation and measured after 24 hrs by SRB assay; format: toxicity, cell-based; details: RAW264.7 cells induced with LPS/IFNgamma, time 48 hrs
RAW264.7 [15] = test: Antiinflammatory activity in mouse RAW264.7 cells assessed as inhibition in LPS/IFNgamma-induced NO production at 200 uM preincubated for 2 hrs followed by LPS/IFNgamma stimulation and measured after 24 hrs by Griess reagent based assay relative to control; format: functional; details: time 26 hrs
[16] = Toxicity in Kunming mouse assessed as number of mouse survived at 66 mg/kg, po measured for 15 days; format: organism-based; details: in vivo, 360 h, time 15 day
[17] = Toxicity in Kunming mouse assessed as number of mouse survived at 53 mg/kg, po measured for 15 days; format: organism-based; details: in vivo, 360 h, time 15 day
[18] = Toxicity in Kunming mouse assessed as number of mouse survived at 42 mg/kg, po measured for 15 days; format: organism-based; details: in vivo, 360 h, time 15 day
[19] = Toxicity in Kunming mouse assessed as increase in body weight at 42 mg/kg, po measured for 15 days (reference value: 12.38%); format: organism-based; details: in vivo, 360 h, time 15 day
Mus musculus [20] = test: Anti-inflammatory activity in C57BL/6 mouse model of DSS-induced acute ulcerative colitis assessed as reduction in ulcerations at 100 to 300 mg/kg, po administered once a day for 7 days by H and E staining based analysis; format: functional, organism-based; details: dose 100-300 mg/kg, time 7.0 day
Mus musculus [21] = test: Anti-inflammatory activity in C57BL/6 mouse model of DSS-induced acute ulcerative colitis assessed as reduction in p65 expression in colon at 50 mg/kg, po administered once a day for 7 days by immunohistochemical analysis; format: functional, organism-based; details: time 7.0 day

| Compound | CC50 at 4 h [2] [µM] | selectivity ratio [4] | IC50 [5] [µM] | IC50 (RAW264.7 [9]) [µM] | selectivity ratio [13] | CC50 at 24 h [14] [µM] | further results |
| --- | --- | --- | --- | --- | --- | --- | --- |
| COC(=O)C1=C(C(=O)OC)C2C=CC1O2 | 99.9 | 3.1 | 96.1 | 4.12 | 1.04 | 12.8 | Activity [1]: 0; Activity (Mus musculus [3]): inactive; MTD [6]: 40 mg/kg; Activity [7]: 1; Activity [8]: 3; Activity [10]: 10.6%; Activity [11]: 1; Activity [12]: Toxic |
| COC(=O)C1=C(C(=O)OC)C2OC1CC2C#Cc1cc(OC)cc(OC)c1 (centres undefined) | 34.4 | 1.37 | 6.3 | 3.7 | 5.45 | 5.06 |  |
| COC(=O)C1=C(C(=O)OC)C2OC1CC2C#Cc1ccccc1 (centres undefined) | 62.1 | 1.53 | 19.3 | 3.72 | 3.21 | 5.69 |  |
| C1=CC2OC1c1ccccc12 | 111 |  | 19.7 | > 200 | 5.65 | > 200 | inhibition at 200 µM (RAW264.7 [15]): ~30% |
| COc1ccc(OC)c2c1C1C=CC2O1 | 118 |  | 24.6 | > 200 | 4.79 | > 200 | inhibition at 200 µM (RAW264.7 [15]): ~30% |
| COc1ccc(C#CC2CC3OC2c2ccccc23)cc1 (centres undefined) | 181 | 1.19 | 157 | 161 | 1.15 | 191 |  |
| CCOC(=O)C1=C(C(=O)OCC)C2C=CC1O2 | 59.9 | 5.28 | 33.7 | 3.86 | 1.77 | 20.4 | Activity [1]: 0; Activity (Mus musculus [3]): inactive; MTD [6]: 57 mg/kg; Activity [7]: 0; Activity [8]: 3; Activity [10]: 2.31%; Activity [11]: 1; Activity [12]: Toxic |
| COC(=O)C1=C(C(=O)OC)C2OC1CC2C#Cc1ccc(OC)cc1 (centres undefined) | 22.4 | 4.15 | 24.9 | 1.81 | 0.9 | 7.51 |  |
| CSC(=N)N |  | > 15.8 |  | 12.6 |  | > 200 |  |
| COC(=O)C1=C(C(=O)OC)C2OC1CC2C#Cc1ccc(F)cc1 (centres undefined) | 26.5 | 1.67 | 5.58 | 3.75 | 4.75 | 6.25 |  |
| COc1cc2c(cc1OC)C1C=CC2O1 | 114 |  | 19.9 | > 200 | 5.72 | > 200 | inhibition at 200 µM (RAW264.7 [15]): ~30% |
| COc1ccc(C#CC2CC3OC2c2cc(Br)c(Br)cc23)cc1 (centres undefined) | 140 | 1.07 | 39.4 | 186 | 4.26 | 198 |  |
| COc1ccc(C#CC2CC3OC2c2cc(OC)c(OC)cc23)cc1 (centres undefined) | 198 | 0.99 | 133 | 185 | 1.48 | 184 |  |
| O=C1OC(=O)C2C3CCC(O3)C12 (centres undefined) [DEMETHYL-CANTHARIDIN] | > 200 | 0.79 | 105 | 99.1 | > 1.91 | 78.1 | Activity (Mus musculus [3]): inactive; Activity [16]: 1; MTD [6]: 53 mg/kg; Activity [17]: 0; Activity [18]: 0; Activity [11]: 3; Activity [19]: 15.62% |
| COC(=O)C1=C(C(=O)OC)C2OC1CC2C#Cc1ccccc1OC (centres undefined) | 30.7 | 1.45 | 9.92 | 3.77 | 3.09 | 5.46 | Activity (Mus musculus [20]): Active |
| C[C@@]12C(=O)OC(=O)[C@]1(C)[C@H]1CC[C@@H]2O1 [CANTHARIDIN] |  | 0.38 |  | 10.2 |  | 3.88 |  |
| C[C@@H]1C[C@H]2[C@@H]3CCC4=CC(=O)C=C[C@]4(C)[C@@]3(F)[C@@H](O)C[C@]2(C)[C@@]1(O)C(=O)CO [DEXAMETHASONE] | > 200 |  | 12.2 |  | > 16.4 |  |  |
| COC(=O)C1=C(C(=O)OC)C2OC1CC2C#Cc1ccc(Cl)cc1 (centres undefined) | 20.9 | 1.48 | 12 | 3.53 | 1.74 | 5.23 |  |
| CC(C)(C)OC(=O)C1=C(C(=O)OC(C)(C)C)C2C=CC1O2 | 80.3 | 3.46 | 42 | 3.7 | 1.91 | 12.8 |  |
| CCOC(=O)C1=C(C(=O)OCC)C2OC1CC2C#Cc1ccc(OC)cc1 (centres undefined) | 52.8 | 3.73 | 12.1 | 5.07 | 4.34 | 18.9 |  |
| Brc1cc2c(cc1Br)C1C=CC2O1 | 194 |  | 71.8 | > 200 | 2.7 | > 200 | inhibition at 200 µM (RAW264.7 [15]): ~30% |
| Nc1ccc(O)c(C(=O)O)c1 |  |  |  |  |  |  | Activity (Mus musculus [21]): inactive |
| COc1ccc(C#CC2CC3OC2c2c(OC)ccc(OC)c23)cc1 (centres undefined) | 199 | 1.05 | 137 | 190 | 1.45 | 200 |  |
| COC(=O)C1=C(C(=O)OC)C2OC1CC2C#Cc1ccc(Br)cc1 (centres undefined) | 21.7 | 1.46 | 4.42 | 3.47 | 4.9 | 5.06 |  |
